System: preadipocyte 3T3-L1 cells
Assay: Suppression of fat droplet accumulation in adipocytes (Oil Red O staining, OD 490 nm)
Assay type: cell-based, mouse
Conditions: for Relative amount of fat accumulation: 3T3-L1 adipocytes, samples added Day 0 to Day 7 or 8 at the concentrations of each (Comparative) Example, medium to which nothing was added regarded as 100; for amount of fat accumulation: control (Comparative Example 1b) = 100; for relative amount of fat accumulation in adipocytes: control = 100
Method: Because they are immortalized cells, they can be mass-produced as fibroblasts before induction of differentiation. […] The passage media used were passage medium A (DMEM (4.5 g/L Glu), (Sigma, glucose, […]), 10% BS (Gibco, 16170), and 1% antibiotic (Gibco, Antibiotic-Antimycotic, 15240-062)) and passage medium B (DMEM (4.5 g/L Glu), 10% FBS (Biowest, S1560), and 1% antibiotic). The differentiation-inducing medium used was prepared by adding a 10-μg/mL insulin solution (Wako, 093-06351), 0.25 μM Dexamethasone (Sigma, D4902), and 0.11-mg/mL 3-isobutyl-1-methylxanthine (Sigma, 15879) to passage medium B. The differentiation-promoting medium used was prepared by adding a 5-μg/mL insulin solution to passage medium B. The differentiation-inducing medium and the differentiation-promoting medium were prepared before use. The oleuropein used was an “oleuropein” reagent available from Sigma. In the experiment, the oleuropein was used in such an amount that the final concentration was 50 μM. The hydroxytyrosol used was a “hydroxytyrosol” reagent available from Sigma. In the experiment, the hydroxytyrosol was used in such an amount that the final concentration was 25 μM. The willow extract used was a water extract (dry powder) of young branches including sprouts of willow (a plant mixture containing at least one or more members selected from Salix daphnoides, Salix purpurea, Salix fragilis, and Salix alba). In the experiment, the extract was diluted with the medium so that the final concentrations were 2.5, 5, 12.5, 25, 50, 100, and 200 μg/mL. The sulforaphane used was a “sulforaphane” reagent available from Sigma. In the experiment, a 100-mM DMSO solution was prepared, and diluted with the medium. A 5-mM γ-orizanol solution was prepared, and diluted with the medium. […] Embryo mouse) was grown in passage medium A. […] Sumilon Celltight C-1) so that the concentration was 2.5×10^4 cells/well. The cells were cultured for 2 days at 37° C. in the presence of 5% CO2. Thereafter, the medium was replaced with passage medium B. After confluent growth, culture was continued for about 2 days in passage medium B, and the medium was replaced with the differentiation-inducing medium (Day 0). Within 48 hours after the differentiation of the cells was induced in the differentiation-inducing medium, the medium was replaced with the differentiation-promoting medium (Day 2). Each sample was continuously added from the time of the replacement of the differentiation-inducing medium (Day 0) to Day 7 or 8. Cold 10% formalin/PBS was prepared by adding 10% (v/v) formalin to PBS (phosphate buffered saline) and adjusting the pH to 7.4, and then stored at 4° C. In this experiment, a 10% neutral buffered formalin solution (Wako, 060-03845) was used. The stain solution used was a 0.5% Oil Red O/isopropanol solution. Oil Red O (Wako, 154-02072) was dissolved in isopropanol (Sigma) by shaking to prepare a saturated solution. The 0.5% Oil Red 0/isopropanol solution and distilled water were mixed at a ratio of 3:2 immediately before use (preparation before use). The 3T3-L1 cells in the well plate cultured to Day 7 or 8 by the above culture method were used. Cold 10% formalin/PBS (0.5 mL/well) was added to the well plate containing the medium, and allowed to stand at room temperature. After the medium was removed, cold 10% formalin/PBS (0.5 mL/well) was newly added, and allowed to stand at room temperature. After the formalin solution was removed, the well plate was washed 2 or 3 times with distilled water (1 mL/well) to completely remove the remaining […]. After the well plate was washed once with 60% isopropanol (0.5 mL/well), the filtered stain solution was added at 1 mL/well, and allowed to stand at room temperature. After staining, the well plate was washed once with 60% isopropanol (0.5 mL/well), and washed 2 or 3 times with distilled water (1 mL/well). […] The eluted isopropanol solution was measured by a microplate reader at OD 490 nm. […]

Molecule	Relative amount of fat accumulation	further results
C/C=C1/[C@H](O[C@@H]2O[C@H](CO)[C@@H](O)[C@H](O)[C@H]2O)OC=C(C(=O)OC)[C@H]1CC(=O)OCCc1ccc(O)c(O)c1 [1a, Oleuropein]	99.9	–
OCCc1ccc(O)c(O)c1 [2b, Hydroxytyrosol]	99.3	–
C[S+]([O-])CCCCN=C=S (stereo not shown) [3a, Sulforaphane]	110.7	–
OCCc1ccc(O)c(O)c1 [3b, Hydroxytyrosol]	78.4	–
C[S+]([O-])CCCCN=C=S (stereo not shown) [5a, Sulforaphane]	100.9	–
C[S+]([O-])CCCCN=C=S (stereo not shown) [5b, Sulforaphane]	104.8	–
C[S+]([O-])CCCCN=C=S (stereo not shown) [6b, Sulforaphane]	100.8	–
C[S+]([O-])CCCCN=C=S (stereo not shown) [Comparative Example 4a, Sulforaphane]	109.8	–
OCCc1ccc(O)c(O)c1 [hydroxytyrosol]	–	amount of fat accumulation (25 μM added alone): around 100; fat accumulation-suppressing effect higher than that of the control (37.5 μM added alone): about 25%
C/C=C1/[C@H](O[C@@H]2O[C@H](CO)[C@@H](O)[C@H](O)[C@H]2O)OC=C(C(=O)OC)[C@H]1CC(=O)OCCc1ccc(O)c(O)c1 [oleuropein]	–	relative amount of fat accumulation in adipocytes (50 μM added alone): around 100
C[S+]([O-])CCCCN=C=S (stereo not shown) [sulforaphane]	–	amount of fat accumulation (0.25 or 2.5 μM added alone): around 100; relative amount of fat accumulation in adipocytes (0.5 to 1.25 μM added alone): around 100
γ-Orizanol [7b]	78.5	–
γ-Orizanol [Comparative Example 6a]	51.4	–
γ-orizanol	–	fat accumulation-suppressing effect higher than that of the control (0.5 μM added alone): about 25%

Reference: patent publication US10603332B2, “Anti-obesity composition” (SUNSTAR INC., priority 2013, dated 2020)
